The text below walks through data of patent publication US20090286713A9, “Collagen Receptor I-Domain Binding Modulators” (Biotie Therapies Corporation, priority 2005, published 2009).

The target in test [1] is T1, CHO cells expressing α2β1 integrin (Homo sapiens, UniProt P05556+P17301).
T1 sequence (P17301 1-1181): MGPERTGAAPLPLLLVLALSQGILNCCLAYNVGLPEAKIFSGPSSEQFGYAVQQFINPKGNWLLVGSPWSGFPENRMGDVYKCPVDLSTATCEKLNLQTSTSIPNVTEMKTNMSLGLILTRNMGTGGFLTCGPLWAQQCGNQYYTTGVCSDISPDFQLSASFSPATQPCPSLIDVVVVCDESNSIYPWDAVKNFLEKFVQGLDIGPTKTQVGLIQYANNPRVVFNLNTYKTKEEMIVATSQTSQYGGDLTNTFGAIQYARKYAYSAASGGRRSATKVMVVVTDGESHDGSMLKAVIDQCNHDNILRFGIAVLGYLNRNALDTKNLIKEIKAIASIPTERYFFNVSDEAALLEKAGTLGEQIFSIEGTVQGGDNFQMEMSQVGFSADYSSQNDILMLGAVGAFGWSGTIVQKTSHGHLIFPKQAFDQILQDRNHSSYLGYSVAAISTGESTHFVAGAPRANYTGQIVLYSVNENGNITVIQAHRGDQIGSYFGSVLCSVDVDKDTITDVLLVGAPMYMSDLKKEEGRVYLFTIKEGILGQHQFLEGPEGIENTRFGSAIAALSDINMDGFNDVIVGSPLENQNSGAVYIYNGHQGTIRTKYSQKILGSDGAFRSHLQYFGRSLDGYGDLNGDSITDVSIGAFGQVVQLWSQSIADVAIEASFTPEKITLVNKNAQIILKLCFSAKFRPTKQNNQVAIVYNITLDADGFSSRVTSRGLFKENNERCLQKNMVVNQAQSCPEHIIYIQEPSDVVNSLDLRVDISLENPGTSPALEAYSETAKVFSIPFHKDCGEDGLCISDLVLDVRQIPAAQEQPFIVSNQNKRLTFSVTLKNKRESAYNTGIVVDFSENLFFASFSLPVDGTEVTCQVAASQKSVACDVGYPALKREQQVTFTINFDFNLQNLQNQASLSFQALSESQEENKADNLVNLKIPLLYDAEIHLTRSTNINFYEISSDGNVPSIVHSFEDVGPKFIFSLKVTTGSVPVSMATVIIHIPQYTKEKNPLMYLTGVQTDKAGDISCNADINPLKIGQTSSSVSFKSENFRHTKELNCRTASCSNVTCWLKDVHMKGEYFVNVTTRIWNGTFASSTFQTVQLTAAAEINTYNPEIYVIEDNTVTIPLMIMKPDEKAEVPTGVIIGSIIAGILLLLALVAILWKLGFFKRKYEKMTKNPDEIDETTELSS
Kind of test: Cell adhesion assay, CHO-α2 cells on collagen type I. It is filed as cell-based, Chinese Hamster. Conditions: for Emax at 100 µM / inhibition at 50 µM: CHO; for EC50: CHO-α2 cells, collagen type I, read-out: EC50, adhesion. On the procedure: (§1) Chinese Hamster Ovary (CHO) cell clone expressing wild type α2 integrin was used in cell adhesion assay. Cells were suspended in serum free medium containing 0.1 mg/ml cycloheximide (Sigma) and the compounds were preincubated with the cells prior to transfer to the wells. Cells (150000/well) were allowed to attach on collagen type I coated wells (in the presence and absence of inhibitor compounds) for 2 h at +37° C. and after that non-adherent cells were removed. Fresh serum free medium was added and the living cells were detected using a cell viability kit (Roche) according to the manufacturers protocol.
(§2) For this purpose CHO cells were transfected to express α2β1 integrin on their surface as their only collagen receptor.

For test [2], the target named is T2, CHO cells expressing α2β1 integrin (Homo sapiens, UniProt P17301).
T2 sequence (P17301 1-1181): T1 sequence (P17301 1-1181)
The test is described as above. It is filed as cell-based, Chinese Hamster. Conditions: FIG. 10A, 10B. On the procedure:
as §1, §2

The subject of test [3] is platelet aggregation in whole blood. Kind of test: Platelet function analyzer PFA-100 closure time of whole blood. The following applies: PFA-100, collagen plus epinephrine; FIG. 12. It is filed as cell-based. On the procedure:
Mean and standard deviations were calculated for each treatment.

In test [4] the test system is CHO expressing mutated α2β1 integrin (tyrosine 285, leucine 286, leucine 296). In words: Cell adhesion assay with CHO cells expressing mutated α2β1 integrin. The class given is cell-based, Chinese Hamster. Conditions: data not shown.
In test [5] the target is T3, α2 I-domain (Homo sapiens, UniProt P17301).
T3 construct: corresponded to amino acids 124-339 of the whole α2 integrin; made in house; host or cells: E. coli BL21 (pGEX-2T)
T3 sequence (P17301 153-368): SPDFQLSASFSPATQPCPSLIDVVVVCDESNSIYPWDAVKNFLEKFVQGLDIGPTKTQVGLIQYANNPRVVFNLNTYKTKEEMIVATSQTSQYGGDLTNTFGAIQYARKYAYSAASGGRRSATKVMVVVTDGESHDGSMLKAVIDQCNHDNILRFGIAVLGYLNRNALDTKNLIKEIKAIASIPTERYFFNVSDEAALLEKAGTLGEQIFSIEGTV
Kind of test: Solid-phase binding assay, α2 I-domain binding to type I collagen. Conditions: for inhibition of α2 I-domain binding to type I collagen (in words): FIG. 6B, 7A, 8A. How it is done:
(§3) Solid-phase binding assay for α1-domains—The coating of a 96-well high binding microtiter plate (Nune) was done by exposure to 0.1 ml of PBS containing 5 μg/cm2 (15 μg/ml) collagens or 20 μg/ml triple-helical peptides overnight at +4° C. Blank wells were coated with 1:1 solution of 0.1 ml Delfia® Diluent II (Wallac) and PBS. Residual protein absorption sites on all wells were blocked with 1:1 solution of 0.1 ml Delfia® Diluent II (Wallac) and PBS. Recombinant proteins (αI-GST) were added to the coated wells at a desired concentration in Delfia® Assay Buffer and incubated for 1 h at room temperature. Europium-labelled anti-GST antibody (Wallac) was then added (typically 1:1000), and the mixture was incubated for 1 h at room temperature. All incubations mentioned above were done in the presence of 2 mM MgCl2. Delfia® enhancement solution (Wallac) was added to each well and the Europium signal was measured by time-resolved fluorometry (Victor2 multilabel counter, Wallac). At least three parallel wells were analyzed. In some cases some what modified solid-phase assay was used and it was performed according Tulla et al, 2001. It uses anti-GST and Europium-labelled protein G instead of Europium-labelled anti-GST antibody.
(§4) The tetracyclic Streptomyces compounds synthesised in Example 1, where screened for inhibition of collagen binding to α1 and α2 I-domains, using the α I-domain assay described in Example 4. […] L3015 could inhibit the binding of both α1I and α2 I-domains to type I and type IV collagen (FIG. 6B).
Based on the utilization of 3D model other compounds from the polyketide family were tested. The compounds were tested in the europium-labelled anti-GST assay described in Example 4. Tetracyclic polyketides L3007, L3008, and L3009 could inhibit α2 I-domain binding to type I collagen (FIG. 8A).

Test [6] addresses T3, α2 I-domain. Kind of test: α2 I-domain binding to RKK-peptide (europium-labelled protein G assay). Conditions: FIG. 7B. How it is done:
as §3
RKK-peptides are known to bind to MIDAS of α2 I-domain (Ivaska et al., 1999). […]

The target in test [7] is T4, α1 I-domain (Homo sapiens, UniProt P56199).
T4 construct: corresponding to amino acids 123-338 of the whole α1 integrin; made in house; host or cells: E. coli BL21 (pGEX-4T-3)
T4 sequence (P56199 151-366): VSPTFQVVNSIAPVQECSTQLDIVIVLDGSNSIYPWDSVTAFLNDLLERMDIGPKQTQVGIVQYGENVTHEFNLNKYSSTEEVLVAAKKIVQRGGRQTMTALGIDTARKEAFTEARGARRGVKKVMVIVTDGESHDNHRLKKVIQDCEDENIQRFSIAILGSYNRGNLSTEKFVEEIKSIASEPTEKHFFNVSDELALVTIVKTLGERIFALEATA
Kind of test: Solid-phase binding assay, α1 I-domain binding to type I collagen. The following applies: FIG. 6B, 7A. How it is done: as §3, §4
Furthermore α1I and α2 I-domain binding to collagen I in the presence of lovastatin was tested in the europium-labelled anti-GST assay described in Example 4. Lovastatin is an allosteric inhibitor of leukocyte integrin α I-domains (e.g. αL I-domain), and the binding site of lovastatin represents an optional binding site for possible modulators. […] These biological tests gave further evidence that collagen receptor α I-domains are inhibited by direct blocking of the MIDAS surface by tetracyclic polyketide.

In test [8] the target is T3, α2 I-domain. In words: Solid-phase binding assay, α2 I-domain binding to type IV collagen. The following applies: FIG. 6B. On the procedure: as §3, with “antibody. […]” for “antibody.”
Test [9] deals with T4, α1 I-domain. In words: Solid-phase binding assay, α1 I-domain binding to type IV collagen. Conditions: FIG. 6B. On the procedure:
as §3, with “antibody. […]” for “antibody.”

`CN(C)CCN(c1ccc(N(C)C)cc1)S(=O)(=O)c1cccc(-c2ccc(F)cc2)c1` [Compound 354]: in test [1], the maximal response (Emax) (as a rule, the greatest response seen or fitted, relative to the assay's reference) at 100 µM turned out to be 89% and the half-maximal effective concentration (EC50) – broadly, the concentration that produces a half-maximal response – came out at 29 µM.

`CN(C)c1ccc(N(CCn2ccnc2)S(=O)(=O)c2cccc(-c3ccc(F)cc3)c2)cc1` [Compound 358]: in test [1], the maximum response (Emax) at 100 µM came out at 74% and the concentration for a half-maximal effect (EC50) was 30 µM.

With `CN(C)c1ccc(N(CCO)S(=O)(=O)c2cccc(-c3ccc(F)cc3)c2)cc1` [Compound 359], in [1], the Emax at 100 µM came out at 67% and the EC50 was 39 µM.

Turning to `CC(=O)c1ccc(NS(=O)(=O)c2cccc(-c3ccc(F)cc3)c2)cc1` [Compound 383], the EC50 in test [1] was determined as 39 µM.

`O=C(c1ccccc1)c1ccc(NS(=O)(=O)c2cccc(-c3ccc(F)cc3)c2)cc1` [Compound 384]: in [1], the maximum response (Emax) at 100 µM worked out at 81% and the EC50 was 12 µM.

On to `O=S(=O)(Nc1cccc(-c2ccc(F)cc2)c1)c1ccc(Cl)cc1` [Compound 398], for which, in test [1], the inhibition (commonly the share of the control response that was lost under treatment) at 50 µM amounted to 83% and the concentration giving a half-maximal response (EC50) worked out at 16 µM.

Take `O=S(=O)(Nc1cccc(-c2ccc(F)cc2)c1)c1ccc(Cl)cc1Cl` [Compound 403]: in test [1], the Emax at 100 µM was 86% and the EC50 was 37 µM.

In the case of `O=C(c1ccccc1)c1ccc(NS(=O)(=O)c2ccc(Cl)cc2Cl)cc1` [Compound 416], in test [1], the Emax at 100 µM was 79%, the inhibition at 50 µM came out at 44% and the EC50 was determined as 42 µM.

Consider `CN(c1ccc(NC(=O)N2CCNC2=O)cc1)S(=O)(=O)c1cccc(-c2ccc(F)cc2)c1` [Compound 430], for which, in test [1], the Emax at 100 µM was 59% and the EC50 is 14 µM.

On to `O=C(c1ccccc1)c1cccc(NS(=O)(=O)c2cccc(-c3ccc(F)cc3)c2)c1` [Compound 432], for which, in test [1], the maximum response (Emax) at 100 µM was determined as 79% and the EC50 stood at 15 µM.

In the case of `O=C(c1ccccc1)c1ccc([N-]S(=O)(=O)c2cccc(-c3ccc(F)cc3)c2)cc1.[Na+]` [Compound 434], in [2], the “inhibition of cell adhesion to collagen type I (in words)” value was “potent inhibitor”. The Emax at 100 µM in [1] (at 100 uM) amounted to 78%. In [1], the EC50 came out at 9.1 µM. Further, the “closure time of the blood” value in test [3] is “increase the closure time”. In [4], the “effect of mutation of tyrosine 285, leucine 286, leucine 296 on the inhibitory effect in adhesion of CHO cells expressing α2β1 to collagen I” value is given as “significantly decreased”.

As for `O=[N+]([O-])c1ccc(NS(=O)(=O)c2cccc(-c3ccc(F)cc3)c2)cc1` [Compound 440], in test [1], the maximal effect (Emax) at 100 µM is 78% and the concentration giving a half-maximal response (EC50) amounted to 8.7 µM.

With `Cn1cccc1C(=O)Nc1ccc(NS(=O)(=O)c2cccc(-c3ccc(F)cc3)c2)cc1` [Compound 442], the Emax at 100 µM in test [1] came to 22%.

Consider `N#Cc1ccc(NS(=O)(=O)c2cccc(-c3ccc(F)cc3)c2)cc1` [Compound 448], for which, in [1], the maximum response (Emax) at 100 µM came out at 74% and the concentration giving a half-maximal response (EC50) was found to be 38 µM.

For the compound `CCc1cc(O)c2c(O)c3c(c(O)c2c1C(=O)OC)C(=O)c1cccc(O)c1C3=O` [Compound L3008, methyl 2-ethyl-4,5,7,12-tetrahydroxy-6,11-dioxonaphthacenecarboxylate], the “effect of mutation of tyrosine 285, leucine 286, leucine 296 on the inhibitory effect in adhesion of CHO cells expressing α2β1 to collagen I” value in test [4] is “significantly decreased”. In addition, the “inhibition of α2 I-domain binding to type I collagen (in words)” value at α2 I-domain [5] is reported as “could inhibit”.

With `CCc1cc(O)c2c(O)c3c(cc2c1C(=O)OC)C(=O)c1cccc(O)c1C3=O` [Compound L3015, methyl 2-ethyl-4,5,7-trihydroxy-6,11 dioxonaphthacenecarboxylate], the “displacement of RKK peptide at MIDAS” value at α2 I-domain [6] is reported as “can displace”. For the same compound, the “inhibition of α1 I-domain binding to type I collagen (in words)” value on α1 I-domain [7] is given as “could inhibit”. Also, at α2 I-domain [8], the “inhibition of α2 I-domain binding to type IV collagen (in words)” value is “could inhibit”. Besides, the “inhibition of α1 I-domain binding to type IV collagen (in words)” value at α1 I-domain [9] was “could inhibit”. Also, the “inhibition of α2 I-domain binding to type I collagen (in words)” value at α2 I-domain [5] is reported as “could inhibit”. The inhibition at 30 µM on α2 I-domain [5] (at 0.03 mM concentration, dose dependent, FIG. 6A) is ~50%.

Turning to `CC[C@H](C)C(=O)O[C@H]1C[C@@H](C)C=C2C=C[C@H](C)[C@H](CC[C@@H]3C[C@@H](O)CC(=O)O3)[C@H]21` [lovastatin, reference compound], on α1 I-domain [7], the “inhibition of α1 I-domain binding to type I collagen (in words)” value is listed as “no effect”. Also, at α2 I-domain [5], the “inhibition of α2 I-domain binding to type I collagen (in words)” value is “no effect”.

For “methyl 2-ethyl-2,5,7,12-tetrahydroxy-4,6,11-trioxo-1,2,3-trihydronaphthacene-carboxylate [Compound L3007]”, at α2 I-domain [5], the “inhibition of α2 I-domain binding to type I collagen (in words)” value was “could inhibit”.
